Laboratory results: patent publication US4774241A, “Derivative of benzoquinonylphenyl alkanoic acid amide” (Suntory Limited, priority 1986, dated 1988)

Assays:
[1] = test system: Male ddY mice (hypobaric hypoxia); assay: Hypobaric Hypoxia Activity (survival time of mice at 180 mmHg); format: in vivo; conditions: Mus musculus, ip, 30 minutes before evacuation, survival time vs. control, read-out: Hypobaric Hypoxia (Minimum effective dose)
Procedure: (§1) The activities of some compounds prepared in the above-mentioned Synthetic Examples and the Comparative Examples were evaluated as follows.
1. Hypobaric Hypoxia Activity
Male ddY mice having a body weight of 22 to 30 g were used (i.e., 7 to 10 mice in one group). The mice were placed in a desiccator having a volume of about 1 liter and the desiccator was evacuated and then, the sample compound was intraperitoneally injected […]. into the mice. The desiccator was evacuated 30 minutes after the injection and the time from the start of the evacuation to the termination of breathing by the mice was determined to be the survival time. If a mouse was still alive 15 minutes after exposure to the hypoxia, the survival time was assumed to be 15 minutes. The results were compared with a control group, to which only a liquid medium (e.g., physiological saline) was injected.

[2] = Acute Toxicity Test; conditions: mouse, in vivo; ip, mice, suspended in 1% arabic gum
Source text: Male ddY-STF mice having an age of 4 to 5 weeks and a body weight of 22 to 30 g were used for evaluating the acute toxicity of the present compounds. The sample compound was suspended in 1% arabic gum and was intraperitoneally injected.

[3] = test system: Male ddY mice (global ischemia); assay: Global Ischemia Activity (gasping time after decapitation); format: in vivo; conditions: ip
Procedure: as §1
2. Global Ischemia Activity
Male ddY mice having a body weight of 22 to 30 g were used (i.e., 6 mice in one group). The sample compound was intraperitoneally injected into the mice and the mice were decapitated 30 minutes after the injection. After decapitation, the gasping times were determined. The results were compared with a control group to which only the liquid medium (i.e., physiological saline) was injected.

Row | SMILES | minimal effective dose [1] [mg/kg] | LD50 [2] [mg/kg] | Gasping time ([3]; 25 mg/kg) | minimal effective dose ([3]; Mus musculus, 30 minutes before decapitation, gasping time vs. control, read-out: Global Ischemia (Minimum effective dose)) [mg/kg]
1 | COC1=C(OC)C(=O)C(C(CCC(=O)N2CCN(C)CC2)c2ccccc2)=C(C)C1=O (stereo not drawn) [Example 3, 4-(3,4-Dimethoxy-6-methyl-2,5-benzoquinonyl)-4-phenyl-1-(N-methylpiperazinyl)-1-oxobutane] | 25 |  |  | 
2 | COC1=C(OC)C(=O)C(C(CCCC(=O)N2CCOCC2)c2ccccc2)=C(C)C1=O (stereo not drawn) [Example 5, 5-(3,4-dimethoxy-6-methyl-2,5-benzoquinonyl)-5-phenyl-1-morpholino-1-oxopentane] | 6.25 | > 1000 |  | 
3 | COC1=C(OC)C(=O)C(C(CCCC(=O)O)c2ccccc2)=C(C)C1=O (stereo not drawn) [compound 2, 5-(3,4-Dimethoxy-6-methyl-2,5-benzoquinonyl)-5-phenylvaleric acid, reference compound] |  | > 500 |  | 
4 | COC1=C(OC)C(=O)C(C(CCCCCC(=O)O)c2ccccc2)=C(C)C1=O (stereo not drawn) [compound 3, 7-(3,4-Dimethoxy-6-methyl-2,5-benzoquinonyl)-7-phenylheptanoic acid, reference compound] |  | > 500 | Gasping time was shortened | 
5 | COC1=C(OC)C(=O)C(C(CCC(=O)O)c2ccccc2)=C(C)C1=O (stereo not drawn) [compound 1, 4-(3,4-Dimethoxy-6-methyl-2,5-benzoquinonyl)-4-phenylbutyric acid, reference compound] |  | > 500 |  | 
6 | COC1=C(OC)C(=O)C(C(CCCC(=O)N2CCSCC2)c2ccccc2)=C(C)C1=O (stereo not drawn) [Example 4, 5-(3,4-dimethoxy-6-methyl-2,5-benzoquinonyl)-5-phenyl-1-thiomorpholino-1-oxopentane] | 6.25 | > 1000 |  | 
7 | COC1=C(OC)C(=O)C(C(CCC(=O)N2CCSCC2)c2ccccc2)=C(C)C1=O (stereo not drawn) [Example 1, 4-(3,4-dimethoxy-6-methyl-2,5-benzoquinonyl)-4-phenyl-1-thiomorpholine-1-oxobutane] | 6.25 | > 1000 |  | 12.5
